Where “and” joins values, the source holds several entries; their conditions need not be identical. Equal values may be shown once. Toxic doses and inconclusive results are not listed. The calls were made as follows: active = survival T/C of 150% or more; inactive = T/C below 125% in these data.
Test system: P388 leukemia ip, CD2F1 mice, survival T/C
Assay: NCI In Vivo Anticancer Drug Screen. Data for tumor model P388 Leukemia (intraperitoneal) in CD2F1 (CDF1) mice
Details: endpoint: median survival time, higher = longer survival
Summary of the method: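 Mice carrying the transplanted tumor received test compound or vehicle. Survival was recorded in each group, and the value is the treated-group measurement divided by that of the vehicle-treated control group.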

[1] = dose: 50.0 mg/kg/injection, schedule: Q01DX009 (ip), vehicle: Klucel (hydroxypropylcellulose) (HPC)
[2] = dose: 100.0 mg/kg/injection, schedule: Q01DX009 (ip), vehicle: Klucel (hydroxypropylcellulose) (HPC)
[3] = dose: 200.0 mg/kg/injection, schedule: Q01DX009 (ip), vehicle: Klucel (hydroxypropylcellulose) (HPC)
[4] = dose: 50.0 mg/kg/injection, schedule: Q01DX009 (ip), vehicle: saline
[5] = dose: 100.0 mg/kg/injection, schedule: Q01DX009 (ip), vehicle: saline
[6] = dose: 50.0 mg/kg/injection, schedule: Q01DX005 (ip), vehicle: saline
[7] = dose: 100.0 mg/kg/injection, schedule: Q01DX005 (ip), vehicle: saline
[8] = dose: 12.5 mg/kg/injection, schedule: Q01DX005 (ip), vehicle: Klucel (hydroxypropylcellulose) (HPC)
[9] = dose: 25.0 mg/kg/injection, schedule: Q01DX005 (ip), vehicle: Klucel (hydroxypropylcellulose) (HPC)
[10] = dose: 50.0 mg/kg/injection, schedule: Q01DX005 (ip), vehicle: Klucel (hydroxypropylcellulose) (HPC)
[11] = dose: 50.0 mg/kg/injection, schedule: Q01DX005 (ip), vehicle: saline with Tween-80
[12] = dose: 100.0 mg/kg/injection, schedule: Q01DX005 (ip), vehicle: saline with Tween-80
[13] = dose: 200.0 mg/kg/injection, schedule: Q01DX005 (ip), vehicle: saline with Tween-80
[14] = dose: 100.0 mg/kg/injection, schedule: Q01DX005 (ip), vehicle: Klucel (hydroxypropylcellulose) (HPC)
[15] = dose: 200.0 mg/kg/injection, schedule: Q01DX005 (ip), vehicle: Klucel (hydroxypropylcellulose) (HPC)

Measured: T/C

O=[N+]([O-])c1ccc(N/N=C/CCl)c([N+](=O)[O-])c1
inactive: dose: 11.0 mg/kg/injection, schedule: Q04DX003 (ip), vehicle: Klucel (hydroxypropylcellulose) (HPC) 100 % of control | dose: 11.0 mg/kg/injection, schedule: Q04DX003 (ip), vehicle: saline with Tween-80 108 % of control | dose: 16.5 mg/kg/injection, schedule: Q04DX003 (ip), vehicle: Klucel (hydroxypropylcellulose) (HPC) 100 % of control | dose: 16.5 mg/kg/injection, schedule: Q04DX003 (ip), vehicle: saline with Tween-80 100 % of control | dose: 25.0 mg/kg/injection, schedule: Q04DX003 (ip), vehicle: Klucel (hydroxypropylcellulose) (HPC) 98 % of control | dose: 25.0 mg/kg/injection, schedule: Q04DX003 (ip), vehicle: saline with Tween-80 108 % of control | dose: 37.5 mg/kg/injection, schedule: Q04DX003 (ip), vehicle: Klucel (hydroxypropylcellulose) (HPC) 97 % of control | dose: 37.5 mg/kg/injection, schedule: Q04DX003 (ip), vehicle: saline with Tween-80 104 % of control

COc1ccc(CCNCc2cccc(O)c2)cc1OC
inactive: [1] 90 % of control | [2] 92 % of control | [3] 88 % of control

CCCCCCOC(=O)C1=C(NC)CCC1
inactive: [4] 106 % of control | [5] 119 % of control

COC(=O)C1CC(C)N1C(C)C (stereo not given)
inactive: [6] 95 % of control | [7] 97 % of control | dose: 200.0 mg/kg/injection, schedule: Q01DX005 (ip), vehicle: saline 100 % of control

COC1(OC)C=NNc2nncn21
inactive: [6] 105 % of control | [7] 107 % of control

CN(C)c1ncnc2c1ncn2C1CCCCO1 (stereo not given)
inactive: [8] 103 % of control | [9] 105 % of control | [10] 100 % of control

O=[N+]([O-])c1ccc(Oc2c3ccccc3nc3ccccc23)cc1
inactive: [11] 90 % of control | [12] 90 % of control | [13] 93 % of control

CC1=NN(c2ccccc2)C(=O)/C1=C1\SS/C(=C2\C(=O)N(c3ccccc3)N=C2C)S1
inactive: dose: 12.5 mg/kg/injection, schedule: Q01DX009 (ip), vehicle: Klucel (hydroxypropylcellulose) (HPC) 100 % of control | dose: 25.0 mg/kg/injection, schedule: Q01DX009 (ip), vehicle: Klucel (hydroxypropylcellulose) (HPC) 103 % of control | [1] 121 % of control and 90 % of control | [2] 92 % of control and 94 % of control | [3] 102 % of control

CC1CC(C)CN(C)C1 (stereo not given)
inactive: [6] 100 % of control | [7] 100 % of control

Nc1nc(N)c2[nH]c(N=Nc3ccc(N(CCO)CCO)cc3)nc2n1
inactive: [11] 106 % of control | [12] 106 % of control | [13] 108 % of control

CNc1ccc(O)cc1
inactive: dose: 5.0 mg/kg/injection, schedule: Q01DX009 (ip), vehicle: saline sonified 100 % of control | dose: 10.0 mg/kg/injection, schedule: Q01DX009 (ip), vehicle: saline sonified 104 % of control | dose: 20.0 mg/kg/injection, schedule: Q01DX009 (ip), vehicle: saline sonified 100 % of control

COc1ccc2c(c1)CC1c3c(cc4c(c3-2)OCO4)CCN1C (stereo not given)
inactive: dose: 30.0 mg/kg/injection, schedule: Q01DX005 (ip), vehicle: Klucel (hydroxypropylcellulose) (HPC) 93 % of control | dose: 60.0 mg/kg/injection, schedule: Q01DX005 (ip), vehicle: Klucel (hydroxypropylcellulose) (HPC) 90 % of control | dose: 120.0 mg/kg/injection, schedule: Q01DX005 (ip), vehicle: Klucel (hydroxypropylcellulose) (HPC) 90 % of control

CCc1nn(CCCN2CCN(c3cccc(Cl)c3)CC2)c(=O)n1CC
inactive: [4] 114 % of control | [5] 116 % of control

COc1ccc(CC(N)C(=O)OCc2ccccc2)cc1N(CCCl)CCCl (stereo not given)
inactive: dose: 1.56 mg/kg/injection, schedule: Q01DX009 (ip), vehicle: suspension in saline 97 % of control | dose: 3.12 mg/kg/injection, schedule: Q01DX009 (ip), vehicle: suspension in saline 95 % of control | dose: 6.25 mg/kg/injection, schedule: Q01DX009 (ip), vehicle: suspension in saline 100 % of control

C=C1C(=O)OC(CCCCCCCCCCCCCC(C)=O)[C@H]1C(=O)O (stereo not given in full)
inactive: dose: 5.0 mg/kg/injection, schedule: Q01DX005 (ip), vehicle: Klucel (hydroxypropylcellulose) (HPC) 93 % of control | dose: 5.0 mg/kg/injection, schedule: Q01DX005 (ip), vehicle: saline 93 % of control | dose: 10.0 mg/kg/injection, schedule: Q01DX005 (ip), vehicle: Klucel (hydroxypropylcellulose) (HPC) 90 % of control | dose: 10.0 mg/kg/injection, schedule: Q01DX005 (ip), vehicle: saline 91 % of control | dose: 20.0 mg/kg/injection, schedule: Q01DX005 (ip), vehicle: Klucel (hydroxypropylcellulose) (HPC) 110 % of control and 90 % of control and 107 % of control | dose: 20.0 mg/kg/injection, schedule: Q01DX005 (ip), vehicle: saline 96 % of control | dose: 40.0 mg/kg/injection, schedule: Q01DX005 (ip), vehicle: Klucel (hydroxypropylcellulose) (HPC) 105 % of control and 98 % of control | dose: 80.0 mg/kg/injection, schedule: Q01DX005 (ip), vehicle: Klucel (hydroxypropylcellulose) (HPC) 107 % of control

C1CC2CC1CC2CNCC1CC2CCC1C2 (stereo not given)
inactive: [8] 103 % of control | [9] 103 % of control | [10] 98 % of control and 101 % of control

CCCCN(CCCC)CC(O)c1c(OC)ccc2ccccc12 (stereo not given)
inactive: dose: 12.5 mg/kg/injection, schedule: Q01DX005 (ip), vehicle: saline 100 % of control | dose: 25.0 mg/kg/injection, schedule: Q01DX005 (ip), vehicle: saline 98 % of control | [11] 119 % of control | [6] 105 % of control

Clc1ccc2nc(Cl)[nH]c2c1
inactive: [10] 102 % of control | [14] 100 % of control | [15] 99 % of control

O=C(O)C1C(C(=O)O)C2(Cl)C(Cl)=C(Cl)C1(Cl)C2(Cl)Cl.[Mn] (stereo not given)
inactive: dose: 50.0 mg/kg/injection, schedule: Q04DX003 (ip), vehicle: saline sonified 95 % of control | dose: 100.0 mg/kg/injection, schedule: Q04DX003 (ip), vehicle: saline sonified 91 % of control

CCO/C(C)=N/n1c(C)nc2[nH]ncc2c1=O
inactive: dose: 60.0 mg/kg/injection, schedule: Q01DX005 (ip), vehicle: saline with Tween-80 99 % of control | dose: 120.0 mg/kg/injection, schedule: Q01DX005 (ip), vehicle: saline with Tween-80 106 % of control | dose: 240.0 mg/kg/injection, schedule: Q01DX005 (ip), vehicle: saline with Tween-80 106 % of control

CC1(C)C(=NOCc2ccccc2)C(C)(C)C1=NOCc1ccccc1
inactive: [11] 91 % of control | [12] 87 % of control | [13] 86 % of control

CCOc1c(N=Nc2ccccc2C)c(C)nn1C(N)=S
inactive: dose: 60.0 mg/kg/injection, schedule: Q01DX005 (ip), vehicle: Klucel + Tween-80 100 % of control | dose: 120.0 mg/kg/injection, schedule: Q01DX005 (ip), vehicle: Klucel + Tween-80 97 % of control | dose: 240.0 mg/kg/injection, schedule: Q01DX005 (ip), vehicle: Klucel + Tween-80 100 % of control

O=C(Nc1ccc([N+](=O)[O-])cc1)Nc1nccs1
inactive: dose: 12.5 mg/kg/injection, schedule: Q01DX009 (ip), vehicle: distilled water + Tween-80 108 % of control and 112 % of control and 115 % of control | dose: 25.0 mg/kg/injection, schedule: Q01DX009 (ip), vehicle: distilled water + Tween-80 120 % of control | dose: 50.0 mg/kg/injection, schedule: Q01DX009 (ip), vehicle: distilled water + Tween-80 119 % of control

COC1CC23OC2(C1)C1C=CC3N(C(=O)OCC(Cl)(Cl)Cl)N1C(=O)OCC(Cl)(Cl)Cl (stereo not given)
inactive: [10] 102 % of control | [14] 105 % of control | [15] 102 % of control

Source: PubChem BioAssay AID330 (DTP/NCI, 2004)
